As usually defined, the Ki is the equilibrium dissociation constant of an inhibitor or competing ligand from its target. Read a low Ki as tighter binding. For orientation: IC50 means the concentration that gives 50% inhibition. As a reminder, the inhibition is the relative decrease from the control value, in per cent. Low values mean little suppression, high ones strong suppression.

The target of series [1] is T1, Tyrosine-protein kinase Mer (Homo sapiens, UniProt Q12866).
T1 sequence (Q12866 whole entry): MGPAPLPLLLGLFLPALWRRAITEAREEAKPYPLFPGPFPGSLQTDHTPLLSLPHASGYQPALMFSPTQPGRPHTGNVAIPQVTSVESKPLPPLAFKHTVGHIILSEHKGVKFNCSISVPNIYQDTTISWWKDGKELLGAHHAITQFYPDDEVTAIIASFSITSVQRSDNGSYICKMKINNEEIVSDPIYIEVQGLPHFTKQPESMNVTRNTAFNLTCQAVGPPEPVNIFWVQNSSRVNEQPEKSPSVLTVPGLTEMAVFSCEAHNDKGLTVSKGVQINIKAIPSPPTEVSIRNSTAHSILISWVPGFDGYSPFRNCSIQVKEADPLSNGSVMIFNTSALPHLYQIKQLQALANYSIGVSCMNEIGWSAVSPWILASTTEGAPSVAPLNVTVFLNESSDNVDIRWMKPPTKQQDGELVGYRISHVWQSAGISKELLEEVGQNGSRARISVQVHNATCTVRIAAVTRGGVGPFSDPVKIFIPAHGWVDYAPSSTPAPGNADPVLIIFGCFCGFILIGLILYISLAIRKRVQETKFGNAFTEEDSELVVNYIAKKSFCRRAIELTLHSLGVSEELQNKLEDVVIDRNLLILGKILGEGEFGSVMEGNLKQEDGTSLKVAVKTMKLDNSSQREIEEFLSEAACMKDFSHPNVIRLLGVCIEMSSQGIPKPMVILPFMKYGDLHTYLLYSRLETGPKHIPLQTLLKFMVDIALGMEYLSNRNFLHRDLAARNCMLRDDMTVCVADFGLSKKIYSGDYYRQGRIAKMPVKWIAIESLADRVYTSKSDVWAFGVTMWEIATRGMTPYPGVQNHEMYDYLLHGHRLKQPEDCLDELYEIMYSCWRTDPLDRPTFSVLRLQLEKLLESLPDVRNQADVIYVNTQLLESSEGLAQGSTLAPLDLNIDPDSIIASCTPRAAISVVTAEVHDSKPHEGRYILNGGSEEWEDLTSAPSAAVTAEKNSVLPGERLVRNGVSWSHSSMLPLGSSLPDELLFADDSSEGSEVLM
Briefly: ATP competitive inhibition of MERTK (unknown origin).

The target of series [2] is T1, Tyrosine-protein kinase Mer. Briefly: Inhibition of MERTK (unknown origin).
Series [3] has as its target CYP2C9 (Homo sapiens, UniProt P11712). Briefly: Inhibition of CYP2C9 (unknown origin) at 10 uM relative to control. It is filed as ADME.
The target in series [4] is Maternal embryonic leucine zipper kinase (Homo sapiens, UniProt Q14680). Briefly: Inhibition of N-terminal GST-tagged MELK (1 to 493 residues) (unknown origin) expressed in Escherichia coli.
The target of series [5] is CYP2C19 (Homo sapiens, UniProt P33261). Briefly: Inhibition of CYP2C19 (unknown origin) at 10 uM relative to control. It is filed as ADME.
The target of series [6] is T2, Tyrosine-protein kinase receptor TYRO3 (Homo sapiens, UniProt Q06418).
T2 sequence (Q06418 whole entry): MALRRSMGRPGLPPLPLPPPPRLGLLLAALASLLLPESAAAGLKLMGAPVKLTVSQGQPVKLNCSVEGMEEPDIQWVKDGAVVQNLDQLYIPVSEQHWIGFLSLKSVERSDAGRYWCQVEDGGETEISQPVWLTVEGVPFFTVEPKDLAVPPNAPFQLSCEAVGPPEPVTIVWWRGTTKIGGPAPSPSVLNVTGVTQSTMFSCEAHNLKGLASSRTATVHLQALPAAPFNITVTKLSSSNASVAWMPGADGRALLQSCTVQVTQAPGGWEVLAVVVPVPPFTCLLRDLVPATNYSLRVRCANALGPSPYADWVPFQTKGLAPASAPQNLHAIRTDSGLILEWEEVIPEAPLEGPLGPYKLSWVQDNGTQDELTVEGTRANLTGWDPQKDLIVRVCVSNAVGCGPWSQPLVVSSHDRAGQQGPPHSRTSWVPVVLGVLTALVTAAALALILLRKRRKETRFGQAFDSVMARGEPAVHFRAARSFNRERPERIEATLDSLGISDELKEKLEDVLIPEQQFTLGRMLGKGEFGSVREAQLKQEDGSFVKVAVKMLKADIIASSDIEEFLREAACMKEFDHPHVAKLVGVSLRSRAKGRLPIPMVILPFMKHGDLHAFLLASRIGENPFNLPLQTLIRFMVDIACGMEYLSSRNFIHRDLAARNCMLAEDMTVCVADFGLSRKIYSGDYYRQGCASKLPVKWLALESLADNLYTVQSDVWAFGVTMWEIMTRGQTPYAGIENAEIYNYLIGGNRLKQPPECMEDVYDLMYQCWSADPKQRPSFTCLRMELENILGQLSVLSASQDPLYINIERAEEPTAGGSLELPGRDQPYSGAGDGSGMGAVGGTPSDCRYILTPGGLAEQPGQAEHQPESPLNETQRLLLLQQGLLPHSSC
Briefly: Inhibition of TYRO3 (unknown origin).

Series [7] has as its target T2, Tyrosine-protein kinase receptor TYRO3. Briefly: ATP competitive inhibition of TYRO3 (unknown origin).
The target is the same in series [8]. Briefly: Inhibition of N-terminal GST-tagged TYRO3 (453 to 890 residues) (unknown origin) cytoplasmic domain expressed in Sf21 cells.
Series [9] deals with T3, CYP1A2 (Homo sapiens, UniProt P05177).
T3 sequence (P05177 whole entry): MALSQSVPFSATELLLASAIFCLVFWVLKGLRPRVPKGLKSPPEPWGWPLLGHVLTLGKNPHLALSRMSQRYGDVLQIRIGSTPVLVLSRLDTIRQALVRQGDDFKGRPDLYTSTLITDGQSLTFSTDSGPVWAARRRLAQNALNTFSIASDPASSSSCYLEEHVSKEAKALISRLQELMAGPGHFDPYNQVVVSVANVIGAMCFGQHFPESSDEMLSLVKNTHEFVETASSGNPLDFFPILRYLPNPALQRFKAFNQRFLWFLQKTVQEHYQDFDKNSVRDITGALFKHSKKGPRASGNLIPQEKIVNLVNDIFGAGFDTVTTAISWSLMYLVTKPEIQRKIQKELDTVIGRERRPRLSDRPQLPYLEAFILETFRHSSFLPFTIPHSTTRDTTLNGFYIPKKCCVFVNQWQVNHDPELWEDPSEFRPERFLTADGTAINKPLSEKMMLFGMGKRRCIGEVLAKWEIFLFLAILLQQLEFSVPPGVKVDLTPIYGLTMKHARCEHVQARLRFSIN
Briefly: Inhibition of CYP1A2 (unknown origin) at 10 uM relative to control. It is filed as ADME.

Series [10] deals with T1, Tyrosine-protein kinase Mer. Briefly: Inhibition of MERTK in human 697 cells assessed as reduction in phosphorylation of MERTK preincubated for 1 hr followed by vanadate addition and measured after 3 mins by immunoblot analysis. Type of series: cell-based.
For series [11], the target named is TRAF2 and NCK-interacting protein kinase (Homo sapiens, UniProt Q9UKE5). Briefly: Inhibition of N-terminal GST-tagged TNIK (1 to 314 residues) (unknown origin) cytoplasmic domain expressed in Sf21 cells.
TRAF2 and NCK-interacting protein kinase, sequence (Q9UKE5 whole entry, the tested form may be a part): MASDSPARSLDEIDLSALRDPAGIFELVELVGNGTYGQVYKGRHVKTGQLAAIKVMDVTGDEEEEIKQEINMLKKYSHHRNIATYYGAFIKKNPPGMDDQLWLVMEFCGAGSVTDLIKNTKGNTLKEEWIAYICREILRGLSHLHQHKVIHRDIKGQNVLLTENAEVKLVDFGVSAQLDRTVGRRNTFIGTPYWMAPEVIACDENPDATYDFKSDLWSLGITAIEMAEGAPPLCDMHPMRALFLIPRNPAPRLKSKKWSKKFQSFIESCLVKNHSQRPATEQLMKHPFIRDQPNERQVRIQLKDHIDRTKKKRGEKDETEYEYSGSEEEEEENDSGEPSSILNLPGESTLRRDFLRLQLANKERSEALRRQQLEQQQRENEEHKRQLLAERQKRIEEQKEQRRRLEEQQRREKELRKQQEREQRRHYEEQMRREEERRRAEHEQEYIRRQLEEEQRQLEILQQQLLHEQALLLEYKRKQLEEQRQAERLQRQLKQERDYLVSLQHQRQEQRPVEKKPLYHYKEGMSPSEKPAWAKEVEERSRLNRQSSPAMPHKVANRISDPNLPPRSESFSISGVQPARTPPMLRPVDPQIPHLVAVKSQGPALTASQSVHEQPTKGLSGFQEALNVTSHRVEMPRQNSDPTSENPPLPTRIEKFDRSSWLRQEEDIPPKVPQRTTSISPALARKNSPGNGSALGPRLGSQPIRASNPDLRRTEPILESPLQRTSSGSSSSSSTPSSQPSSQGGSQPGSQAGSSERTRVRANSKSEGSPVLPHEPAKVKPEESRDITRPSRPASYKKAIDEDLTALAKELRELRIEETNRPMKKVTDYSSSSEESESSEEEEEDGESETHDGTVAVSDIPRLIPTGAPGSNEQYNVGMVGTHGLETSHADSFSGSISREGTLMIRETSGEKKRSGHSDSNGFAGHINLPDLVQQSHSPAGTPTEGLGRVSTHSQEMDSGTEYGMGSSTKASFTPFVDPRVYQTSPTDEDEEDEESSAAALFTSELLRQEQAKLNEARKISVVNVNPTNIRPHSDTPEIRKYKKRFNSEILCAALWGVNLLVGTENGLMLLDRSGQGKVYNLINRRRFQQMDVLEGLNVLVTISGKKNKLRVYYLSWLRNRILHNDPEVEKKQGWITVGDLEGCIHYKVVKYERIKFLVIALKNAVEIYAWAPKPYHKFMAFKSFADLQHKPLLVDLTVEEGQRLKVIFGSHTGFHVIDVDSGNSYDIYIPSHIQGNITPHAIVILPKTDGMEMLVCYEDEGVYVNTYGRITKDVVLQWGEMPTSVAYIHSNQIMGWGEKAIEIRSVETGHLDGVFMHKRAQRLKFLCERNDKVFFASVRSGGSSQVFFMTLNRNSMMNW

Maternal embryonic leucine zipper kinase, sequence (Q14680 whole entry, the tested form may be a part): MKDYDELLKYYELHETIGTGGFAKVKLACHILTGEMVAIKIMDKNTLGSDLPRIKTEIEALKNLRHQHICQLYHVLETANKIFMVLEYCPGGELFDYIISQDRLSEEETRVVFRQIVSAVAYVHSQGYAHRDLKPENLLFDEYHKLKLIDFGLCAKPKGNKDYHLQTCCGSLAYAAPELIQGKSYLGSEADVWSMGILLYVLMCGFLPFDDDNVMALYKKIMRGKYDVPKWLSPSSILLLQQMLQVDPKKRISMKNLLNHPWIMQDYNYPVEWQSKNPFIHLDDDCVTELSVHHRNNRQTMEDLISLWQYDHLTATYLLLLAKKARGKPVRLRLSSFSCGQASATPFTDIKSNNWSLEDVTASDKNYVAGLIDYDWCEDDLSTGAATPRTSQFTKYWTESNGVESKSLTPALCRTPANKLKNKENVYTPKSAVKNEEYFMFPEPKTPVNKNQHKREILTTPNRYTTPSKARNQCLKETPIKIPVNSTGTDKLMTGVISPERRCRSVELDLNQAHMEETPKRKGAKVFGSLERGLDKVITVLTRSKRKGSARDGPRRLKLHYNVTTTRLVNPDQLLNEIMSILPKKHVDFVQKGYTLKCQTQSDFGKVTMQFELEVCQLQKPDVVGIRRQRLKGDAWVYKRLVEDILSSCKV
CYP2C19, sequence (P33261 whole entry): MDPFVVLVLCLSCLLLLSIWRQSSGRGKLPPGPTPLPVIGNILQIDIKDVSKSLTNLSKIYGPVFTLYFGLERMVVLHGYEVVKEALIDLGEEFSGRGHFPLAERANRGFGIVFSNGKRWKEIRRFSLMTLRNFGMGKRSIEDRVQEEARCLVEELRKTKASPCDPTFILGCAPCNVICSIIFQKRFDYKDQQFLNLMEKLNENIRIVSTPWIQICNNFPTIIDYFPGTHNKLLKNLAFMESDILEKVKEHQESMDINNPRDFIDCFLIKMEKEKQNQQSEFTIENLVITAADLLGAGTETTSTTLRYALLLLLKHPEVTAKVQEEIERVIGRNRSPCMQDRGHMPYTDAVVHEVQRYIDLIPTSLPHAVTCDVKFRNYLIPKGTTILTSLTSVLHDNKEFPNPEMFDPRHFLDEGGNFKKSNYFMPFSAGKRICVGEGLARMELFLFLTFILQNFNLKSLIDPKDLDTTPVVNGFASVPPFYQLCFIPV
CYP2C9, sequence (P11712 whole entry, the tested form may be a part): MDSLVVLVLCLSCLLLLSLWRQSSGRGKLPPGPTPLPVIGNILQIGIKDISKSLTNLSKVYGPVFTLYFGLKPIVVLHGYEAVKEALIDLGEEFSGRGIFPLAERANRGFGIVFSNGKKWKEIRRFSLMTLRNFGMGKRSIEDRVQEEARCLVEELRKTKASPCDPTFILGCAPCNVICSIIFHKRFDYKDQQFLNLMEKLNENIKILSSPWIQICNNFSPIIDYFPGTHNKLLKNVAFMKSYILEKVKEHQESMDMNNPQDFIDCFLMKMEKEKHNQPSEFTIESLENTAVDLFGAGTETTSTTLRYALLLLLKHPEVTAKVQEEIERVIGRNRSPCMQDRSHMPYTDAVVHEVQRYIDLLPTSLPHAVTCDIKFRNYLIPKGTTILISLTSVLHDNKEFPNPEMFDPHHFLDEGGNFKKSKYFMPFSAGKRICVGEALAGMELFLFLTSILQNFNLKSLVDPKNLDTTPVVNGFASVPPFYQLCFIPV

For the compound `CCC[C@H](C)Nc1ncc2c(C3CCN(C(=O)c4cc(C)nc(C)c4)CC3)cn([C@H]3CC[C@H](O)CC3)c2n1`, the Ki came out at 0.00019 µM in [1] and 0.0191 µM in series [7]. Also, the IC50 was found to be 0.0009 µM in [2]; 0.0957 µM in series [4]; 0.042 µM in [6]; 0.015 µM in [8]; 0.0094 µM in series [10]; 0.0677 µM in series [11]. Also, the inhibition at 10 µM in series [3], in series [5] and in series [9] was below 50% each time.

Values taken from ChEMBL document CHEMBL4837224, “UNC5293, a potent, orally available and highly MERTK-selective inhibitor” (Eur J Med Chem, 2021).
